Assay results from the supplement of paper PMC10627819.

What was measured:
B. subtilis 168 [1] = assay: fitness (endpoint OD595 vs no drug) (fraction); higher = more growth
How it was run: (§1)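 Bacterial growth was followed in 384-well plates seeded at OD595 0.01, with 30 µl per well, or 55 µl for S. pneumoniae, in TSB, LB Lennox or CY at 37 °C. OD595 was read every 30 min for 14 h, and each reading had the first reading subtracted as background. Fitness is the background-corrected optical density at entry into stationary phase divided by the robust mean of the no-drug control wells. This ratio is capped at 1.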

S. aureus DSM 20231 [2] = assay: as above
How it was run: as §1

S. pneumoniae D39V [3] = assay: as above
How it was run: as §1

S. aureus Newman [4] = assay: as above
How it was run: as §1

B. subtilis 168 [5] = assay: Bliss interaction score (quartile over a dose matrix) (fitness difference); higher = more antagonism (negative = synergy)
How it was run: (§2)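 The Bliss score takes observed fitness and subtracts the expected fitness, calculated as a product of single-drug fitness values. Those single-drug values were inferred from the combination data. Fitness is OD595 at entry into stationary phase divided by the plate's robust no-drug mean, capped at 1, and the score is summarised by quartiles across technical, biological and donor/recipient replicates.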

S. aureus DSM 20231 [6] = assay: as above
How it was run: as §2

S. pneumoniae D39V [7] = assay: as above
How it was run: as §2

S. aureus Newman [8] = assay: as above
How it was run: as §2
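For Bliss interaction score (quartile over a dose matrix) in this document: first quartile when negative (synergy) and third quartile when positive (antagonism).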

CO/N=C(\C(=O)N[C@@H]1C(=O)N2C(C(=O)O)=C(COC(C)=O)CS[C@H]12)c1csc(N)n1 [Cefotaxime] + O=C(O[C@@H]1Cc2c(O)cc(O)cc2O[C@@H]1c1cc(O)c(O)c(O)c1)c1cc(O)c(O)c(O)c1 [EGCG]
fitness, one replicate
Conditions | first compound 0.00775 µg/mL | first compound 0.0155 µg/mL | first compound 0.031 µg/mL | first compound 0.039 µg/mL | first compound 0.0625 µg/mL | first compound 0.125 µg/mL | first compound 0.25 µg/mL | first compound 0.312 µg/mL
B. subtilis 168 [1], partner 6.25 µg/mL | 0.847 | 0.723 | 0.588 | – | 0.532 | 0.462 | 0.403 | –
B. subtilis 168 [1], partner 12.5 µg/mL | 0.466 | 0.341 | 0.284 | – | 0.59 | 0.521 | 0.475 | –
B. subtilis 168 [1], partner 25 µg/mL | 0.192 | 0.129 | 0.133 | – | 0.547 | 0.484 | 0.32 | –
S. aureus Newman [4], partner 12.5 µg/mL | – | – | – | 0.751 | – | – | – | 0.317
S. aureus Newman [4], partner 25 µg/mL | – | – | – | 0.786 | – | – | – | 0.268
S. aureus Newman [4], partner 50 µg/mL | – | – | – | 0.726 | – | – | – | 0.14

fitness
Conditions | partner 6.25 µg/mL | partner 12.5 µg/mL | partner 25 µg/mL | partner 50 µg/mL
B. subtilis 168 [1], first compound 0.5 µg/mL | 0.265 | 0.293 | 0.103 | –
B. subtilis 168 [1], first compound 1 µg/mL | 0.119 | 0.166 | 0.0631 | –
B. subtilis 168 [1], first compound 2 µg/mL | 0.0879 | 0.142 | 0.0481 | –
S. aureus DSM 20231 [2], first compound 0.039 µg/mL | – | 0.696 | 0.702 | 0.651
S. aureus DSM 20231 [2], first compound 0.078 µg/mL | – | 0.655 | 0.704 | 0.625
S. aureus DSM 20231 [2], first compound 0.156 µg/mL | – | 0.685 | 0.697 | 0.746
S. aureus DSM 20231 [2], first compound 0.312 µg/mL | – | 0.736 | 0.622 | –
S. aureus Newman [4], first compound 0.078 µg/mL | – | 0.594 | 0.615 | 0.573
S. aureus Newman [4], first compound 0.156 µg/mL | – | 0.574 | 0.391 | 0.564
S. aureus Newman [4], first compound 0.625 µg/mL | – | 0.198 | 0.071 | 0.0397
S. aureus Newman [4], first compound 1.25 µg/mL | – | 0.0285 | 0.0144 | 0.0286
S. aureus Newman [4], first compound 2.5 µg/mL | – | 0.0123 | 0.0423 | 0.0268
S. pneumoniae D39V [3], first compound 0.0018 µg/mL | – | 0.977 | 0.978 | 0.939
S. pneumoniae D39V [3], first compound 0.0035 µg/mL | – | 0.989 | ≥ 1 | 0.955
S. pneumoniae D39V [3], first compound 0.007 µg/mL | – | 0.889 | 0.914 | 0.883

Conditions | Bliss interaction score
B. subtilis 168 [5] | 0.112
S. aureus DSM 20231 [6] | 0.0466
S. aureus Newman [8] | 0.0329
S. pneumoniae D39V [7] | 0.07

COc1ccc(C[C@H](N)C(=O)N[C@H]2[C@@H](O)[C@H](n3cnc4c(N(C)C)ncnc43)O[C@@H]2CO)cc1 [Puromycin] + CC1=C\[C@@H](O)CC(=O)Cc2nc(co2)C(=O)N2CCC=C2C(=O)O[C@H](C(C)C)[C@H](C)/C=C/C(=O)NC\C=C\1 [Virginiamycin M1]
Conditions | fitness
B. subtilis 168 [1], first compound 0.39 µg/mL, partner 0.0625 µg/mL | 0.975
B. subtilis 168 [1], first compound 0.39 µg/mL, partner 0.125 µg/mL | 0.947
B. subtilis 168 [1], first compound 0.39 µg/mL, partner 0.25 µg/mL | ≥ 1
B. subtilis 168 [1], first compound 0.78 µg/mL, partner 0.0625 µg/mL | 0.94
B. subtilis 168 [1], first compound 0.78 µg/mL, partner 0.125 µg/mL | 0.908
B. subtilis 168 [1], first compound 0.78 µg/mL, partner 0.25 µg/mL | 0.963
B. subtilis 168 [1], first compound 1.56 µg/mL, partner 0.0625 µg/mL | 0.948
B. subtilis 168 [1], first compound 1.56 µg/mL, partner 0.125 µg/mL | 0.884
B. subtilis 168 [1], first compound 1.56 µg/mL, partner 0.25 µg/mL | 0.87
S. aureus DSM 20231 [2], first compound 0.39 µg/mL, partner 0.0625 µg/mL | 0.981
S. aureus DSM 20231 [2], first compound 0.39 µg/mL, partner 0.125 µg/mL | ≥ 1
S. aureus DSM 20231 [2], first compound 0.39 µg/mL, partner 0.25 µg/mL | 0.926
S. aureus DSM 20231 [2], first compound 0.78 µg/mL, partner 0.125 µg/mL | 0.807
S. aureus DSM 20231 [2], first compound 0.78 µg/mL, partner 0.25 µg/mL | 0.978
S. aureus DSM 20231 [2], first compound 1.56 µg/mL, partner 0.0625 µg/mL | 0.998
S. aureus DSM 20231 [2], first compound 1.56 µg/mL, partner 0.125 µg/mL | ≥ 1
S. aureus DSM 20231 [2], first compound 1.56 µg/mL, partner 0.25 µg/mL | 0.98
S. aureus Newman [4], first compound 0.39 µg/mL, partner 0.0625 µg/mL | 0.988
S. aureus Newman [4], first compound 0.39 µg/mL, partner 0.125 µg/mL | ≥ 1
S. aureus Newman [4], first compound 0.39 µg/mL, partner 0.25 µg/mL | 0.999
S. aureus Newman [4], first compound 0.78 µg/mL, partner 0.0625 µg/mL | 0.986
S. aureus Newman [4], first compound 0.78 µg/mL, partner 0.125 µg/mL | ≥ 1
S. aureus Newman [4], first compound 0.78 µg/mL, partner 0.25 µg/mL | 0.984
S. aureus Newman [4], first compound 1.56 µg/mL, partner 0.0625 µg/mL | 0.998
S. aureus Newman [4], first compound 1.56 µg/mL, partner 0.125 µg/mL | 0.977
S. aureus Newman [4], first compound 1.56 µg/mL, partner 0.25 µg/mL | 0.986
S. pneumoniae D39V [3], first compound 1 µg/mL, partner 0.5 µg/mL | 0.976
S. pneumoniae D39V [3], first compound 1 µg/mL, partner 1 µg/mL | 0.952
S. pneumoniae D39V [3], first compound 1 µg/mL, partner 2 µg/mL | 0.908
S. pneumoniae D39V [3], first compound 2 µg/mL, partner 0.5 µg/mL | 0.986
S. pneumoniae D39V [3], first compound 2 µg/mL, partner 1 µg/mL | 0.969
S. pneumoniae D39V [3], first compound 2 µg/mL, partner 2 µg/mL | 0.886
S. pneumoniae D39V [3], first compound 4 µg/mL, partner 0.5 µg/mL | 0.847
S. pneumoniae D39V [3], first compound 4 µg/mL, partner 1 µg/mL | 0.783
S. pneumoniae D39V [3], first compound 4 µg/mL, partner 2 µg/mL | 0.804

one replicate
Conditions | fitness
S. aureus DSM 20231 [2], first compound 0.39 µg/mL, partner 0.5 µg/mL | 0.858
S. aureus DSM 20231 [2], first compound 0.39 µg/mL, partner 1 µg/mL | 0.798
S. aureus DSM 20231 [2], first compound 0.78 µg/mL, partner 0.5 µg/mL | 0.924
S. aureus DSM 20231 [2], first compound 0.78 µg/mL, partner 1 µg/mL | 0.917
S. aureus DSM 20231 [2], first compound 1.56 µg/mL, partner 0.5 µg/mL | 0.939
S. aureus DSM 20231 [2], first compound 1.56 µg/mL, partner 1 µg/mL | 0.941
S. aureus DSM 20231 [2], first compound 3.12 µg/mL, partner 0.0625 µg/mL | 0.99
S. aureus DSM 20231 [2], first compound 3.12 µg/mL, partner 0.125 µg/mL | 0.996
S. aureus DSM 20231 [2], first compound 3.12 µg/mL, partner 0.25 µg/mL | 0.931
S. aureus DSM 20231 [2], first compound 6.24 µg/mL, partner 0.0625 µg/mL | 0.67
S. aureus DSM 20231 [2], first compound 6.24 µg/mL, partner 0.125 µg/mL | 0.706
S. aureus DSM 20231 [2], first compound 6.24 µg/mL, partner 0.25 µg/mL | 0.851
S. aureus Newman [4], first compound 0.39 µg/mL, partner 0.5 µg/mL | 0.877
S. aureus Newman [4], first compound 0.39 µg/mL, partner 1 µg/mL | ≥ 1
S. aureus Newman [4], first compound 0.39 µg/mL, partner 2 µg/mL | 0.907
S. aureus Newman [4], first compound 0.78 µg/mL, partner 0.5 µg/mL | 0.948
S. aureus Newman [4], first compound 0.78 µg/mL, partner 1 µg/mL | 0.988
S. aureus Newman [4], first compound 0.78 µg/mL, partner 2 µg/mL | 0.87
S. aureus Newman [4], first compound 1.56 µg/mL, partner 0.5 µg/mL | 0.942
S. aureus Newman [4], first compound 1.56 µg/mL, partner 1 µg/mL | ≥ 1
S. aureus Newman [4], first compound 1.56 µg/mL, partner 2 µg/mL | 0.919
S. pneumoniae D39V [3], first compound 1 µg/mL, partner 0.15 µg/mL | ≥ 1
S. pneumoniae D39V [3], first compound 1 µg/mL, partner 0.3 µg/mL | ≥ 1
S. pneumoniae D39V [3], first compound 2 µg/mL, partner 0.15 µg/mL | ≥ 1
S. pneumoniae D39V [3], first compound 2 µg/mL, partner 0.3 µg/mL | 0.983
S. pneumoniae D39V [3], first compound 4 µg/mL, partner 0.15 µg/mL | 0.981
S. pneumoniae D39V [3], first compound 4 µg/mL, partner 0.3 µg/mL | 0.948

Conditions | Bliss interaction score
B. subtilis 168 [5] | 0.0535
S. aureus DSM 20231 [6] | 0.0808
S. aureus Newman [8] | 0.0481
S. pneumoniae D39V [7] | 0.0811
